Measurements from PubChem BioAssay AID256 (DTP/NCI, 2004).
“And” between values parts separate entries of the source, which are not always exact repeats. Equal values may be shown once. Toxic doses and inconclusive results are not listed. How the source made its calls: active means survival T/C of 150% or more; inactive means T/C below 125% in these data.

Tested on: CD2F1 mice, L1210 leukemia ip, survival T/C
Experiment: NCI In Vivo Anticancer Drug Screen. Data for tumor model L1210 Leukemia (intraperitoneal) in CD2F1 (CDF1) mice
Settings: higher = longer survival
Method in brief: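 In this screen, transplantable tumors were grown in mice given either the compound or its vehicle. Results were expressed as the treated measurement relative to the control measurement.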

[1] = endpoint: mean survival time, dose: 100.0 mg/kg/injection, schedule: Q01DX009 (ip), vehicle: saline with Tween-80
[2] = endpoint: mean survival time, dose: 200.0 mg/kg/injection, schedule: Q01DX009 (ip), vehicle: saline with Tween-80
[3] = endpoint: mean survival time, dose: 50.0 mg/kg/injection, schedule: Q01DX009 (ip), vehicle: saline with Tween-80
[4] = endpoint: mean survival time, dose: 100.0 mg/kg/injection, schedule: Q01DX001 (ip), vehicle: saline with Tween-80
[5] = endpoint: mean survival time, dose: 200.0 mg/kg/injection, schedule: Q01DX001 (ip), vehicle: saline with Tween-80
[6] = endpoint: mean survival time, dose: 400.0 mg/kg/injection, schedule: Q01DX001 (ip), vehicle: saline with Tween-80
[7] = endpoint: mean survival time, dose: 12.5 mg/kg/injection, schedule: Q01DX009 (ip), vehicle: saline with Tween-80
[8] = endpoint: mean survival time, dose: 25.0 mg/kg/injection, schedule: Q01DX009 (ip), vehicle: saline with Tween-80

Measured: T/C

Nc1ncnc2c1ncn2C1OC(CO)C2[O][Sn]([c]3ccccc3)([c]3ccccc3)[O]C21 (stereo unspecified)
inactive: endpoint: mean survival time, dose: 1.56 mg/kg/injection, schedule: Q01DX005 (ip), vehicle: other 107 % of control | endpoint: mean survival time, dose: 3.13 mg/kg/injection, schedule: Q01DX005 (ip), vehicle: other 105 % of control | endpoint: mean survival time, dose: 6.25 mg/kg/injection, schedule: Q01DX005 (ip), vehicle: other 100 % of control | endpoint: mean survival time, dose: 12.5 mg/kg/injection, schedule: Q01DX005 (ip), vehicle: other 90 % of control and 107 % of control

O=C1CCCC(=O)N1CCCCCCN1C(=O)CCCC1=O
inactive: [1] 94 % of control | endpoint: mean survival time, dose: 100.0 mg/kg/injection, schedule: Q04DX003 (ip), vehicle: saline with Tween-80 100 % of control | [2] 108 % of control | endpoint: mean survival time, dose: 200.0 mg/kg/injection, schedule: Q04DX003 (ip), vehicle: saline with Tween-80 101 % of control | endpoint: mean survival time, dose: 400.0 mg/kg/injection, schedule: Q04DX003 (ip), vehicle: saline with Tween-80 101 % of control

CCCCCCCCC(=O)N1CCOCC1
inactive: [1] 108 % of control | endpoint: mean survival time, dose: 150.0 mg/kg/injection, schedule: Q04DX003 (ip), vehicle: saline 96 % of control

O=C(/C=C/c1ccccc1)NC(=S)NCc1ccccc1Cl
inactive: [3] 95 % of control and 96 % of control | [4] 94 % of control | endpoint: mean survival time, dose: 100.0 mg/kg/injection, schedule: Q04DX002 (ip), vehicle: saline with Tween-80 95 % of control and 110 % of control | [5] 92 % of control | endpoint: mean survival time, dose: 200.0 mg/kg/injection, schedule: Q04DX002 (ip), vehicle: saline with Tween-80 90 % of control and 95 % of control | [6] 95 % of control | endpoint: mean survival time, dose: 400.0 mg/kg/injection, schedule: Q04DX002 (ip), vehicle: saline with Tween-80 98 % of control and 101 % of control

NP(=O)(OCCC(OCc1ccccc1)OCc1ccccc1)N(CCCl)CCCl (stereo unspecified)
inactive: endpoint: mean survival time, dose: 25.0 mg/kg/injection, schedule: Q01DX001 (ip), vehicle: DMSO 100 % of control | endpoint: mean survival time, dose: 50.0 mg/kg/injection, schedule: Q01DX001 (ip), vehicle: DMSO 100 % of control | endpoint: mean survival time, dose: 100.0 mg/kg/injection, schedule: Q01DX001 (ip), vehicle: DMSO 91 % of control | endpoint: mean survival time, dose: 200.0 mg/kg/injection, schedule: Q01DX001 (ip), vehicle: DMSO 97 % of control | endpoint: mean survival time, dose: 400.0 mg/kg/injection, schedule: Q01DX001 (ip), vehicle: DMSO 103 % of control

O=C(OCCC[P+](c1ccccc1)(c1ccccc1)c1ccccc1)c1ccccc1
inactive: endpoint: mean survival time, dose: 6.25 mg/kg/injection, schedule: Q01DX001 (ip), vehicle: saline with Tween-80 109 % of control | endpoint: mean survival time, dose: 6.25 mg/kg/injection, schedule: Q01DX009 (ip), vehicle: saline with Tween-80 110 % of control | endpoint: mean survival time, dose: 12.5 mg/kg/injection, schedule: Q01DX001 (ip), vehicle: saline with Tween-80 114 % of control | [7] 114 % of control | endpoint: mean survival time, dose: 25.0 mg/kg/injection, schedule: Q01DX001 (ip), vehicle: saline with Tween-80 115 % of control | [8] 112 % of control

C1=CSCCC1
inactive: endpoint: mean survival time, dose: 25.0 mg/kg/injection, schedule: Q04DX002 (ip), vehicle: saline + alcohol 102 % of control | endpoint: mean survival time, dose: 50.0 mg/kg/injection, schedule: Q04DX002 (ip), vehicle: saline + alcohol 94 % of control | endpoint: mean survival time, dose: 100.0 mg/kg/injection, schedule: Q04DX002 (ip), vehicle: saline + alcohol 90 % of control

CCCCCCCCC(Sc1nn(C2OC(COC(=O)c3ccccc3)C(OC(=O)c3ccccc3)C2OC(=O)c2ccccc2)c(=O)[nH]c1=O)C(=O)OCC (stereo unspecified)
inactive: endpoint: mean survival time, dose: 12.5 mg/kg/injection, schedule: Q01DX005 (ip), vehicle: distilled water + Tween-80 101 % of control | endpoint: mean survival time, dose: 25.0 mg/kg/injection, schedule: Q01DX005 (ip), vehicle: distilled water + Tween-80 100 % of control | endpoint: mean survival time, dose: 50.0 mg/kg/injection, schedule: Q01DX005 (ip), vehicle: distilled water + Tween-80 100 % of control | endpoint: mean survival time, dose: 100.0 mg/kg/injection, schedule: Q01DX005 (ip), vehicle: distilled water + Tween-80 97 % of control | endpoint: mean survival time, dose: 200.0 mg/kg/injection, schedule: Q01DX005 (ip), vehicle: distilled water + Tween-80 97 % of control

Cc1ccoc1N(O)c1occc1C
inactive: [4] 93 % of control | [5] 101 % of control | [6] 95 % of control

COc1ccc(OC)c(NC(=O)N2CCCC(C)C2)c1 (stereo unspecified)
inactive: endpoint: mean survival time, dose: 88.0 mg/kg/injection, schedule: Q01DX009 (ip), vehicle: other 95 % of control | endpoint: mean survival time, dose: 100.0 mg/kg/injection, schedule: Q01DX009 (ip), vehicle: other 124 % of control | endpoint: mean survival time, dose: 133.0 mg/kg/injection, schedule: Q01DX009 (ip), vehicle: other 95 % of control | endpoint: mean survival time, dose: 300.0 mg/kg/injection, schedule: Q01DX009 (ip), vehicle: other 95 % of control

O=C1Cc2c([nH]c(=S)[nH]c2=O)N1
inactive: endpoint: median survival time, dose: 50.0 mg/kg/injection, schedule: Q01DX005 (ip), vehicle: saline 94 % of control | endpoint: median survival time, dose: 100.0 mg/kg/injection, schedule: Q01DX005 (ip), vehicle: saline 102 % of control | endpoint: median survival time, dose: 200.0 mg/kg/injection, schedule: Q01DX005 (ip), vehicle: saline 101 % of control

O=C(c1ccccc1)c1cccs1
inactive: endpoint: mean survival time, dose: 22.0 mg/kg/injection, schedule: Q01DX009 (ip), vehicle: saline with Tween-80 96 % of control | endpoint: mean survival time, dose: 22.0 mg/kg/injection, schedule: Q04DX003 (ip), vehicle: saline with Tween-80 95 % of control | endpoint: mean survival time, dose: 44.0 mg/kg/injection, schedule: Q01DX009 (ip), vehicle: saline with Tween-80 96 % of control | endpoint: mean survival time, dose: 44.0 mg/kg/injection, schedule: Q04DX003 (ip), vehicle: saline with Tween-80 101 % of control | endpoint: mean survival time, dose: 88.0 mg/kg/injection, schedule: Q01DX009 (ip), vehicle: saline with Tween-80 93 % of control | endpoint: mean survival time, dose: 88.0 mg/kg/injection, schedule: Q04DX003 (ip), vehicle: saline with Tween-80 104 % of control

O=C(CNC(=O)Nc1cccc(C(F)(F)F)c1)N/N=C/c1c(O)ccc2ccccc12
inactive: [7] 94 % of control | [8] 94 % of control | [3] 94 % of control and 96 % of control | [1] 100 % of control | [2] 100 % of control

Cc1ccccc1NC(=S)Nc1ccccn1
inactive: [1] 95 % of control | [2] 98 % of control | endpoint: mean survival time, dose: 400.0 mg/kg/injection, schedule: Q01DX009 (ip), vehicle: saline with Tween-80 93 % of control
